Test results published in PubChem BioAssay (NCI).
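48-hour exposure; five concentrations; linearly interpolated endpoints. Here, GI50 denotes the concentration required for 50% inhibition of growth. TGI denotes the concentration required for complete inhibition of growth.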

Key:
Assay in all cases: NCI anticancer screen, dose series, 48 h
A498 renal = system: A498 renal
A549 NSCLC = system: A549 NSCLC
CAKI-1 renal = system: CAKI-1 renal
CCRF-CEM leukemia = system: CCRF-CEM leukemia
MALME-3M melanoma = system: MALME-3M melanoma
NCI/ADR-RES ovarian = system: NCI/ADR-RES ovarian
SN12C renal = system: SN12C renal
HCC-2998 colon = system: HCC-2998 colon
NCI-H460 lung = system: NCI-H460 lung
SR leukemia = system: SR leukemia

SMILES | TGI (A498 renal) | TGI (A549 NSCLC) | TGI (CAKI-1 renal) | TGI (CCRF-CEM leukemia) | TGI (MALME-3M melanoma) | TGI (NCI/ADR-RES ovarian) | TGI (SN12C renal) | GI50 (A498 renal) | GI50 (CAKI-1 renal) | GI50 (HCC-2998 colon) | TGI (HCC-2998 colon) | GI50 (MALME-3M melanoma) | GI50 (NCI-H460 lung) | TGI (NCI-H460 lung) | GI50 (NCI/ADR-RES ovarian) | GI50 (SN12C renal) | TGI (SR leukemia) | GI50 (CCRF-CEM leukemia) | GI50 (SR leukemia) | GI50 (A549 NSCLC)
O=[N+]([O-])c1ccc(N=Nc2c(O)ccc3cc(S(=O)(=O)O)ccc23)cc1 | > 100 µM | > 100 µM | > 100 µM | > 100 µM | > 100 µM | > 100 µM | > 100 µM |  |  |  |  |  |  |  |  |  |  |  |  | 
O=C(CCCn1c(=O)c2sc3ccccc3c2n2nnc(-c3ccccc3)c12)NCCc1cnc[nH]1 | 3 µM |  | 1.71 µM |  | 5.49 µM | > 100 µM | 1.87 µM | 1.55 µM | 0.181 µM | 1.77 µM | 4.15 µM | 2.49 µM | 1.87 µM | 3.8 µM | 3.22 µM | 0.271 µM |  |  |  | 
CO[C@H]1[C@@H](O)[C@@H](C)O[C@@H](O[C@H]2CC[C@@]3(C)[C@H](CC[C@@H]4[C@@H]3CC[C@]3(C)[C@@H](C5=CC(=O)OC5)CC[C@]43O)C2)[C@@H]1O | 0.813 µM | 0.00487 µM | 0.0128 µM | 0.37 µM | 0.00902 µM | 0.0276 µM |  |  |  |  | 0.173 µM |  |  | 0.00625 µM |  |  | 0.483 µM |  |  | 
COc1cc(-c2n/c(=C\c3c(O)[nH]c4ccc(Cl)cc34)cc3c2=Nc2ccccc2-3)cc(OC)c1OC | 4.71 µM |  | 6.72 µM | 37.3 µM |  | 7.55 µM | 2.36 µM | 1.76 µM | 1.97 µM | 2.98 µM | 11 µM |  |  |  | 2.01 µM | 0.754 µM | 4.8 µM | 0.849 µM | 0.445 µM | 
[N-]=[N+]=Nc1ccc(NCCCCCC(=O)ON2C(=O)CCC2=O)c([N+](=O)[O-])c1 |  | > 100 µM | > 100 µM |  | > 100 µM | > 100 µM | > 100 µM |  |  |  |  |  |  | > 100 µM |  |  |  |  |  | 
O=c1[nH][nH]c(=O)[nH]1 |  | > 100 µM | > 100 µM | > 100 µM | > 100 µM |  |  |  |  |  | > 100 µM |  |  | > 100 µM |  |  | > 100 µM |  |  | 
Cc1nc2ccccc2c(=O)n1-c1n[nH]c2ccccc12 | > 100 µM | > 100 µM | > 100 µM | > 100 µM | > 100 µM | > 100 µM | > 100 µM |  |  |  | > 100 µM |  |  | > 100 µM |  |  | > 100 µM |  |  | 
O=S1(=O)NNC(=NCc2ccc(Cl)c(Cl)c2)c2ccccc21 | > 100 µM | > 100 µM | > 100 µM | 81 µM | > 100 µM |  | > 100 µM |  |  |  | > 100 µM |  |  | > 100 µM |  |  | 47.1 µM |  |  | 
CN1CCN(c2ccc(-c3ccc4ncc(C#N)c(Nc5ccc(F)c(Cl)c5)c4c3)cc2)CC1 | 12.4 µM | 26.6 µM | 3.01 µM | 6.52 µM | 4.04 µM | 27.9 µM | 19.6 µM | 2.43 µM | 1.01 µM | 3.26 µM | 15.8 µM | 1.74 µM | 2.05 µM | 6.67 µM | 4.57 µM | 3.04 µM | 6.82 µM | 2.2 µM | 2.01 µM | 2.63 µM
